Data: US10967078B2, “Radiolabelled mGluR2 PET ligands” (Janssen Pharmaceutica NV, priority 2014, dated 2021)

Legend:
[1] = target: mGlu8 (Homo sapiens, UniProt O00222); assay: Selectivity for mGluR2 versus mGluR8; format: biochemical
[2] = target: mGlu4 (Homo sapiens, UniProt Q14833); assay: Selectivity for mGluR2 versus mGluR4; format: biochemical
[3] = target: mGlu3 (Homo sapiens, UniProt Q14832); assay: Selectivity for mGluR2 versus mGluR3; format: biochemical
[4] = target: T1, mGluR2 (Mus musculus, UniProt Q14BI2); assay: In vitro autoradiography binding on mGluR2 KO and WT mouse brain sections; conditions: for Cortex WT (TB)/cortex WT (block Co. No. 1) / spec binding, cortex WT: WT mouse cortex; for Cortex WT (TB)/cortex WT (block Co. No. 1) / spec binding, cortex WT / Striatum WT (TB)/striatum WT (block Co. No. 1) / spec binding, striatum WT: block with 10 μM Co. No. 1; for Striatum WT (TB)/striatum WT (block Co. No. 1) / spec binding, striatum WT: WT mouse striatum; for difference in tracer binding to WT and mGluR2 KO mouse brain sections: in words; for Cortex WT (TB)/Cortex KO (TB) / Striatum WT (TB)/Striatum KO (TB): total binding ratio, WT versus mGluR2 KO mouse brain sections
T1 construct: horizontal sections of mGluR2 KO and WT mouse brain and of normal female Wistar rat brain; from tissue; host or cells: mouse brain sections (WT and mGluR2 KO), 20 µm
T1 sequence (Q14BI2 19-872): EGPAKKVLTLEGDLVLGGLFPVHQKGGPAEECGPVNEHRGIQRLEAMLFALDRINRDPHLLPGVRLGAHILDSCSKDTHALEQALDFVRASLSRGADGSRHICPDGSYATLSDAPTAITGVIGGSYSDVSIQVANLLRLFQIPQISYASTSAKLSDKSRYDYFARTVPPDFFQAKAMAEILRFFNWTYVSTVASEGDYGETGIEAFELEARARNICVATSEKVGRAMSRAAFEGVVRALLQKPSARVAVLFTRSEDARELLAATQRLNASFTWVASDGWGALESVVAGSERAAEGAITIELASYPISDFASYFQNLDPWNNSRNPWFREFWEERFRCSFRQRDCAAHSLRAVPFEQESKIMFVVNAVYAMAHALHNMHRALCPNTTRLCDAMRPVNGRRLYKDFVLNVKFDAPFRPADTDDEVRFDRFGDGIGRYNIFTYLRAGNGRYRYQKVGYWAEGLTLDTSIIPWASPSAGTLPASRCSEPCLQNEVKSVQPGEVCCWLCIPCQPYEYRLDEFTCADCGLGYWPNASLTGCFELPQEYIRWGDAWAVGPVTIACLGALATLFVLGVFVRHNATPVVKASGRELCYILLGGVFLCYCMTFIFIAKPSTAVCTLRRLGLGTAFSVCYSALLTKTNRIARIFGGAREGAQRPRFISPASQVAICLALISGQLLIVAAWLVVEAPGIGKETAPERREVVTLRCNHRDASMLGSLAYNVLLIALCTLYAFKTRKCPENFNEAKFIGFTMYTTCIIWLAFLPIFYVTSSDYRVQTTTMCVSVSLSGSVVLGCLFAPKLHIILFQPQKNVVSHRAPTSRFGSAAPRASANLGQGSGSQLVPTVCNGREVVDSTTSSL
Experimental: (§1) In vitro autoradiography studies were performed on horizontal sections of mGluR2 KO and WT mouse brain and of normal female Wistar rat brain (20 μm). The sections were preincubated in 50 mM Tris-HCl (MgCl2 2 mM, CaCl2 2 mM; pH 7.0) for 10 min (two times) at room temperature and dried. Next, the brain sections were incubated with tracer [^11C]-2, [^11C]-5, [^11C]-4, [^11C]-1 or [^18F]-3 diluted in the same Tris-HCl buffer as used for the preincubation additionally containing 0.1% BSA or with this tracer solution in the presence of 10 μM Co. No. 2 or Co. No. 1. The mouse brain sections were incubated with 17 kBq of carbon-11 labeled tracer and 1.7 kBq of fluorine-18 labeled tracer. For the rat brain sections this was 44 kBq of carbon-11 labeled tracer and 0.44 kBq of fluorine-18 labeled tracer. After 30 min of incubation, the brain sections were washed three times for 5 min in ice-cold Tris-HCl 50 mM ((MgCl2 2 mM, CaCl2 2 mM; pH 7.0+0.1% BSA buffer). After a quick dip in purified ice-cold water, the slides were dried. Autoradiograms were obtained by exposing the slides overnight to a high-performance phosphor storage screen (super-resolution screen; Perkin Elmer, Waltham, USA). The screens were read using a Cyclone Plus system (Perkin Elmer) and analysed using Optiquant software (Perkin Elmer). The radioactivity concentration in the autoradiograms was expressed in digital light units (DLU)/mm^2.
(§2) To obtain additional information on the specificity of the tracer binding to mGluR2, in vitro autoradiography binding studies were performed on mGluR2 KO and WT mouse brain sections and on normal rat brain sections in presence or absence of a high concentration of mGluR2 NAM compounds (Co. No. 1 or Co. No. 2).

[5] = target: T2, mGluR2 (Rattus norvegicus, UniProt P31421); assay: In vitro autoradiography binding on normal female Wistar rat brain sections; conditions: in words
T2 construct: horizontal sections of mGluR2 KO and WT mouse brain and of normal female Wistar rat brain; from tissue; host or cells: normal female Wistar rat brain sections, 20 µm
T2 sequence (P31421 19-872): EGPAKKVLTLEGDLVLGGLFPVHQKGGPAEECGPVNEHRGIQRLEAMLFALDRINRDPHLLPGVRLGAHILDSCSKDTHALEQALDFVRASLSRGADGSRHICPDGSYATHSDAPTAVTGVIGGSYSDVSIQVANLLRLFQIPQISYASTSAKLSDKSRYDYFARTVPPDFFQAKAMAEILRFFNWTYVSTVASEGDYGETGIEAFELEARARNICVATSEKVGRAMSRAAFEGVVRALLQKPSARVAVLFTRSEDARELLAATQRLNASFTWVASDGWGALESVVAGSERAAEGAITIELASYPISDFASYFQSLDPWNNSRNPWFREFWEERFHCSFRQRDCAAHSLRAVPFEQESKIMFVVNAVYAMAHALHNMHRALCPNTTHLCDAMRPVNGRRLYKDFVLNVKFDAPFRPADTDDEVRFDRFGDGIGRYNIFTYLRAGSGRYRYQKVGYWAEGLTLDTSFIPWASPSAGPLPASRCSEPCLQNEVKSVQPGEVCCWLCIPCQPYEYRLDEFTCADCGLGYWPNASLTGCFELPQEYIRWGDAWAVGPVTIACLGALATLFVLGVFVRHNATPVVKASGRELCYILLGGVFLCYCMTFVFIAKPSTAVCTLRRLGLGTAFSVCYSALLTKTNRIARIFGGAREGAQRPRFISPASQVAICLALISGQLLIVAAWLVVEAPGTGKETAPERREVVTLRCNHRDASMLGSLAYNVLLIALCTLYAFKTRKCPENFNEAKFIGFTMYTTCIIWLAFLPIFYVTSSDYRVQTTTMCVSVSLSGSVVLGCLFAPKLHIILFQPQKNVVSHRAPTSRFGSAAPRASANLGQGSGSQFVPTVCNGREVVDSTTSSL
Experimental: as §1, §2

[6] = Biodistribution studies in normal female Wistar rats; format: in vivo, rat; conditions: for % ID blood / SUV blood / % ID bone / SUV bone / % ID carcass / % ID cerebellum / SUV cerebellum / SUV cerebrum + cerebellum / % ID cerebrum total / % ID cortex / SUV cortex / % ID heart / % ID hippocampus / SUV hippocampus / % ID intestines / % ID kidneys / % ID liver / % ID lungs / % ID muscle / SUV muscle / % ID rest of cerebrum / SUV rest of cerebrum / % ID spleen + pancreas / % ID stomach / % ID striatum / SUV striatum / % ID urine / SUV whole cerebrum: mean n=3; for SUV cerebrum + cerebellum / Total brain uptake: cerebrum + cerebellum; for Total brain uptake: n=3
Experimental: High-performance liquid chromatography (HPLC) analysis was performed on a LaChrom Elite® HPLC system (Hitachi, Armstadt, Germany) connected to a UV spectrometer. For the analysis of radiolabeled compounds, the HPLC eluate, after passage through the UV detector, was led over a shielded 3-inch NaI(Tl) scintillation detector connected to a single channel analyser (Gabi box, Raytest, Straubenhardt, Germany). The output signal was recorded and analysed using a GINA Star data acquisition system (Raytest, Straubenhardt, Germany). Radioactivity in samples of biodistribution studies was quantified using an automated gamma counter equipped with a 3-inch NaI(Tl) well crystal coupled to a multichannel analyser (Wallac 2480 Wizard, Wallac, Turku, Finland). Results were corrected for background radiation, physical decay and counter dead time. Animals were housed in individually ventilated cages in a thermoregulated (˜22° C.), humidity-controlled facility under a 12 h/12 h light/dark cycle with access to food and water ad libitum. All animal experiments were conducted according to the Belgian code of practice for the care and use of animals, after approval from the local University Ethics Committee for Animals.
Biodistribution studies of [^11C]-2 and [^11C]-1 were carried out in healthy female Wister rats (body weight 185-220 g) at 2 min, 30 min and 60 min post injection (p.i.) (n=3/time point). Rats were injected with about 18 MBq of the tracer via a tail vein under anesthesia (2.5% isoflurane in O2 at 1 L/min flow rate) and sacrificed by decapitation at the above specified time points. Blood and major organs were collected in tared tubes and weighed. The radioactivity in blood, organs and other body parts was measured using an automated gamma counter. For calculation of total blood radioactivity, blood mass was assumed to be 7% of the body mass. For calculation of total muscle and total bone radioactivity, muscle and bone mass were assumed to be 40% and 12% of the body mass, respectively.

mGlu3, sequence (Q14832 23-879): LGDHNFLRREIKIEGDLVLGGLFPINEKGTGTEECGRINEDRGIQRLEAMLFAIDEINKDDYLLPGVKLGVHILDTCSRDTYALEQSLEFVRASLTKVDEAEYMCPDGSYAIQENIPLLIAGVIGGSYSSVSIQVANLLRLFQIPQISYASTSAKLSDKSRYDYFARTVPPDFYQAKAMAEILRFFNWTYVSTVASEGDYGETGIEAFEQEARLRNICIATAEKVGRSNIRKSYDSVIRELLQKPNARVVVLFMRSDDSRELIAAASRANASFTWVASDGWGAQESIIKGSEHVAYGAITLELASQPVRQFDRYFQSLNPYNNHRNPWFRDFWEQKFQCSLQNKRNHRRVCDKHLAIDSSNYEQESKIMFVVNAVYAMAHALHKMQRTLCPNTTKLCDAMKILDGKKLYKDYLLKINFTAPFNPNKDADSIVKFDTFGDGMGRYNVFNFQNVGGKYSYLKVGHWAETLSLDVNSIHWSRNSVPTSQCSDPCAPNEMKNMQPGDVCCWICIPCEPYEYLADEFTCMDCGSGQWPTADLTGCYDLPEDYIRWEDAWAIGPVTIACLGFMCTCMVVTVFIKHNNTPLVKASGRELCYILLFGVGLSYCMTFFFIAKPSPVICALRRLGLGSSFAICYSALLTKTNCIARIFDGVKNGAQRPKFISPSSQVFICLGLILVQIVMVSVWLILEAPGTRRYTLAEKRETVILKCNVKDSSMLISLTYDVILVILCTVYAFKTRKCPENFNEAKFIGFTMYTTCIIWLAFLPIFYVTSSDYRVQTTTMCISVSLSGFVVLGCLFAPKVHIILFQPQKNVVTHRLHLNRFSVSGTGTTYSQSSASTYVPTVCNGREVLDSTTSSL
mGlu8, sequence (O00222 34-908): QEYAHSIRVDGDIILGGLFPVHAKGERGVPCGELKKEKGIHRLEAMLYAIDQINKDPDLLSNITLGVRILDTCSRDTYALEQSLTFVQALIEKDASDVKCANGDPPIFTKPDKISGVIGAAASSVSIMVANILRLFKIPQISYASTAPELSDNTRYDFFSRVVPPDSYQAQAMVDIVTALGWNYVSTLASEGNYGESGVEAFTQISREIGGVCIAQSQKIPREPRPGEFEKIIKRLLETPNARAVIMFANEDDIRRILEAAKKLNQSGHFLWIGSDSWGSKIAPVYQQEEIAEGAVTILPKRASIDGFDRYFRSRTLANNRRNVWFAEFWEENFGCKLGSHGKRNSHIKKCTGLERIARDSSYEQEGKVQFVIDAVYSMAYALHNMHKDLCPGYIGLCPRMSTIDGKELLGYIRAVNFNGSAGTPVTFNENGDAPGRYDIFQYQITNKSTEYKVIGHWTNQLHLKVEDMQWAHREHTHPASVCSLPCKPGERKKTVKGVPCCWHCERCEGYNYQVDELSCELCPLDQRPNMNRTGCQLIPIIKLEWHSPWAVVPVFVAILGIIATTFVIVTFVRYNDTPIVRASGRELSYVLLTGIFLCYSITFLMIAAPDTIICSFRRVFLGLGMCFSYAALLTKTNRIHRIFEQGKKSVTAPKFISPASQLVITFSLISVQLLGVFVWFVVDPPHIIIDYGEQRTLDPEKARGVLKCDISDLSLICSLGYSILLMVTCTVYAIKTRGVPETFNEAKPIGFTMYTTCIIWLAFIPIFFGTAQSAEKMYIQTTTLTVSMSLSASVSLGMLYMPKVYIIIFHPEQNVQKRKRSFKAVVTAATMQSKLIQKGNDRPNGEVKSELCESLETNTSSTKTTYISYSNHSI
mGlu4, sequence (Q14833 33-912): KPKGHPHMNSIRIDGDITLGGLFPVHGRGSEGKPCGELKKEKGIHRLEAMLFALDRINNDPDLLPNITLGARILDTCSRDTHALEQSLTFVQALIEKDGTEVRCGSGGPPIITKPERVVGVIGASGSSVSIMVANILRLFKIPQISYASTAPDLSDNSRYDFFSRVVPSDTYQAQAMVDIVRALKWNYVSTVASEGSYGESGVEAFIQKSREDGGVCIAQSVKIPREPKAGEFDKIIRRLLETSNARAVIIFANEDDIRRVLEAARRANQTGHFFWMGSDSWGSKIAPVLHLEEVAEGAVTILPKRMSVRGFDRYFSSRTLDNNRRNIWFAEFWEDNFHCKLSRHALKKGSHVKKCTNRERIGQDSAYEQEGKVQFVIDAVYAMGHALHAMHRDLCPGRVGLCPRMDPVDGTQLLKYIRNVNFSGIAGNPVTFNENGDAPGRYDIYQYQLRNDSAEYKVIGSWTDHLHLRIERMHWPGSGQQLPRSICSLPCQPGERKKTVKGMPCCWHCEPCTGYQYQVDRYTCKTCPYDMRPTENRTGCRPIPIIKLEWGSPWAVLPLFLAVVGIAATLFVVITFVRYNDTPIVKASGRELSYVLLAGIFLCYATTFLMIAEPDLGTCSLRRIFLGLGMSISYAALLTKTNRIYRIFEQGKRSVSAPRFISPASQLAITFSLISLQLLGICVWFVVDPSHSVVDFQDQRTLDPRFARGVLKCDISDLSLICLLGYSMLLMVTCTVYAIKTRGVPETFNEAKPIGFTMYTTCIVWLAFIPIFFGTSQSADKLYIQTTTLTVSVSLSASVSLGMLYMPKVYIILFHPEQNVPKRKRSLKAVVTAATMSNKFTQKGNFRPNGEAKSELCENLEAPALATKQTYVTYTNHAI

SMILES: CNc1cc(-c2cnn3c2C(=O)N(c2ccc(C(F)(F)F)cc2)C[C@@H]3C)ccn1 [Co. No. 2, (7S)-7-Methyl-3-[2-(methylamino)-4-pyridyl]-5-[4-(trifluoromethyl)phenyl]-6,7-dihydropyrazolo[1,5-a]pyrazin-4-one]
- Selectivity over mGlu8 [1]: 1737.8
- Selectivity over mGlu4 [2]: 8709.6
- Selectivity over mGlu3 [3]: 44.7

SMILES: COc1nc(N2C[C@H](C)n3ncc(-c4ccnc(N[11CH3])c4)c3C2=O)ccc1C(F)(F)F [[^11C]-5]
- Cortex WT (TB)/cortex WT (block Co. No. 1) [4]: ~2.4
- spec binding, cortex WT [4]: (~58% spec
- Striatum WT (TB)/striatum WT (block Co. No. 1) [4]: ~1.9
- spec binding, striatum WT [4]: (~47% spec
- difference in tracer binding to WT and mGluR2 KO mouse brain sections [4]: less pronounced
- Cortex WT (TB)/Cortex KO (TB) [4]: ~2.6
- Striatum WT (TB)/Striatum KO (TB) [4]: ~1.9

SMILES: C[C@H]1CN(c2ccc(C(F)(F)F)cc2)C(=O)c2c(-c3ccnc([11CH3])c3)cnn21 [[^11C]-1]
- total binding to normal rat brain sections [5]: less pronounced
- Cortex WT (TB)/cortex WT (block Co. No. 1) [4]: ~21.5
- spec binding, cortex WT [4]: (~95% spec
- Striatum WT (TB)/striatum WT (block Co. No. 1) [4]: ~11.8
- spec binding, striatum WT [4]: (~92% specific
- difference in tracer binding to WT and mGluR2 KO mouse brain sections [4]: significant difference
- Cortex WT (TB)/Cortex KO (TB) [4]: ~7.1
- Striatum WT (TB)/Striatum KO (TB) [4]: ~3.8
- 2 min - to- 30 min wash-out ratio ([6]; blood): 1.86
- % ID blood ([6]; blood, 2 min p.i.): 6.3 % ID
- SUV blood ([6]; blood, 2 min p.i.): 0.90 SUV
- % ID blood ([6]; blood, 30 min p.i.): 3.4 % ID
- SUV blood ([6]; blood, 30 min p.i.): 0.49 SUV
- 2 min - to- 30 min wash-out ratio ([6]; bone): 2.11
- % ID bone ([6]; bone, 2 min p.i.): 5.7 % ID
- SUV bone ([6]; bone, 2 min p.i.): 0.48 SUV
- % ID bone ([6]; bone, 30 min p.i.): 2.7 % ID
- SUV bone ([6]; bone, 30 min p.i.): 0.23 SUV
- % ID carcass ([6]; 2 min p.i.): 43.4 % ID
- % ID carcass ([6]; 30 min p.i.): 61.5 % ID
- 2 min - to- 30 min wash-out ratio ([6]; cerebellum): 2.90
- % ID cerebellum ([6]; cerebellum, 2 min p.i.): 0.340 % ID
- SUV cerebellum ([6]; cerebellum, 2 min p.i.): 2.60 SUV
- % ID cerebellum ([6]; cerebellum, 30 min p.i.): 0.120 % ID
- SUV cerebellum ([6]; cerebellum, 30 min p.i.): 0.90 SUV
- SUV cerebrum + cerebellum ([6]; 2 min p.i.): 2.82 SUV
- Total brain uptake ([6]; 2 min p.i.): 2.0 % ID
- Total brain uptake ([6]; 2 min p.i., listed as [^11C-1]): 2.01 ± 0.24 % ID
- SUV cerebrum + cerebellum ([6]; 30 min p.i.): 0.95 SUV
- Total brain uptake ([6]; 30 min p.i.): 0.69 ± 0.05 % ID
- % ID cerebrum total ([6]; 2 min p.i.): 1.643 % ID
- % ID cerebrum total ([6]; 30 min p.i.): 0.567 % ID
- 2 min - to- 30 min wash-out ratio ([6]; cortex): 3.22
- % ID cortex ([6]; cortex, 2 min p.i.): 0.131 % ID
- SUV cortex ([6]; cortex, 2 min p.i.): 3.51 SUV
- % ID cortex ([6]; cortex, 30 min p.i.): 0.039 % ID
- SUV cortex ([6]; cortex, 30 min p.i.): 1.09 SUV
- % ID heart ([6]; 2 min p.i.): 0.6 % ID
- % ID heart ([6]; 30 min p.i.): 0.5 % ID
- 2 min - to- 30 min wash-out ratio ([6]; hippocampus): 2.76
- % ID hippocampus ([6]; hippocampus, 2 min p.i.): 0.083 % ID
- SUV hippocampus ([6]; hippocampus, 2 min p.i.): 2.41 SUV
- % ID hippocampus ([6]; hippocampus, 30 min p.i.): 0.031 % ID
- SUV hippocampus ([6]; hippocampus, 30 min p.i.): 0.87 SUV
- % ID intestines ([6]; 2 min p.i.): 10.1 % ID
- % ID intestines ([6]; 30 min p.i.): 11.1 % ID
- % ID kidneys ([6]; 2 min p.i.): 2.9 % ID
- % ID kidneys ([6]; 30 min p.i.): 1.6 % ID
- % ID liver ([6]; 2 min p.i.): 31.2 % ID
- % ID liver ([6]; 30 min p.i.): 14.2 % ID
- % ID lungs ([6]; 2 min p.i.): 2.1 % ID
- % ID lungs ([6]; 30 min p.i.): 0.9 % ID
- 2 min - to- 30 min wash-out ratio ([6]; muscle): 0.61
- % ID muscle ([6]; muscle, 2 min p.i.): 15.1 % ID
- SUV muscle ([6]; muscle, 2 min p.i.): 0.38 SUV
- % ID muscle ([6]; muscle, 30 min p.i.): 24.9 % ID
- SUV muscle ([6]; muscle, 30 min p.i.): 0.62 SUV
- 2 min - to- 30 min wash-out ratio ([6]; rest of cerebrum): 3.00
- % ID rest of cerebrum ([6]; rest of cerebrum, 2 min p.i.): 1.286 % ID
- SUV rest of cerebrum ([6]; rest of cerebrum, 2 min p.i.): 2.83 SUV
- % ID rest of cerebrum ([6]; rest of cerebrum, 30 min p.i.): 0.445 % ID
- SUV rest of cerebrum ([6]; rest of cerebrum, 30 min p.i.): 0.94 SUV
- % ID spleen + pancreas ([6]; 2 min p.i.): 1.9 % ID
- % ID spleen + pancreas ([6]; 30 min p.i.): 1.2 % ID
- % ID stomach ([6]; 2 min p.i.): 2.8 % ID
- % ID stomach ([6]; 30 min p.i.): 6.4 % ID
- 2 min - to- 30 min wash-out ratio ([6]; striatum): 2.68
- % ID striatum ([6]; striatum, 2 min p.i.): 0.143 % ID
- SUV striatum ([6]; striatum, 2 min p.i.): 2.58 SUV
- % ID striatum ([6]; striatum, 30 min p.i.): 0.052 % ID
- SUV striatum ([6]; striatum, 30 min p.i.): 0.97 SUV
- % ID urine ([6]; 2 min p.i.): 0.1 % ID
- % ID urine ([6]; 30 min p.i.): 0.1 % ID
- 2 min - to- 30 min wash-out ratio ([6]; whole cerebrum): 2.98
- SUV whole cerebrum ([6]; whole cerebrum, 2 min p.i.): 2.83 SUV
- SUV whole cerebrum ([6]; whole cerebrum, 30 min p.i.): 0.95 SUV

SMILES: CNc1cc(-c2cnn3c2C(=O)N(c2ccc(C(F)(F)F)c(OC)n2)C[C@@H]3C)ccn1 [Co. No. 5, (7S)-5-[6-Methoxy-5-(trifluoromethyl)-2-pyridyl]-7-methyl-3-[2-(methylamino)-4-pyridyl]-6,7-dihydropyrazolo[1,5-a]pyrazin-4-one]
- melting point: 125.82 °C
- Selectivity over mGlu3 [3]: 234.4

SMILES: C[C@H]1CN(c2ccc(S(F)(F)(F)(F)F)cc2)C(=O)c2c(-c3ccnc(N[11CH3])c3)cnn21 [[^11C]-4]
- Cortex WT (TB)/cortex WT (block Co. No. 1) [4]: ~3.8
- spec binding, cortex WT [4]: (~74% spec
- Striatum WT (TB)/striatum WT (block Co. No. 1) [4]: ~2.6
- spec binding, striatum WT [4]: (~62% spec
- difference in tracer binding to WT and mGluR2 KO mouse brain sections [4]: less pronounced
- Cortex WT (TB)/Cortex KO (TB) [4]: ~2.6
- Striatum WT (TB)/Striatum KO (TB) [4]: ~2.2
